Experimental data reported in patent US20220072162A1, “MAGNETIC RESONANCE IMAGING DRUG CONTAINING A DEUTERATED NATURAL BRANCHED-CHAIN AMINO ACID, AND DIAGNOSTIC METHOD USING SAID DRUG” (LIMITED LIABILITY COMPANY "SOLVEX" ("SOLVEX" LLC), priority 2018, published 2022).

Legend:
[1] = in vivo; cited from earlier work
[2] = rat, in vivo, 0.021 mg/kg; cited from earlier work
[3] = Accumulation of freely diffusing deuterated compounds in organs and tissues; assay type: in vivo; details: authors' experiments and prior art
[4] = in vivo; cited from earlier work; remark: listed apart in the source
4T1 breast carcinoma = assay: Deuterium tomography (2H MRI) to visualize mouse 4T1 breast carcinoma in vivo (Examples 2, 4); details: for accumulation in tumor tissue (2H tomograms): i.p. to 20 g mouse: 20 mg valine-d6, 30 mg L-alanine-d3, 10 mg L-phenylalanine-d7; for accumulation selectivity in various organs (2H tomograms): i.p. to 20 g mouse: 30 mg L-alanine-d3, 10 mg L-phenylalanine-d7
Description: In this example, experiments were performed on Balb/c mice grafted with 4T1 breast carcinoma (injection of 5·10^5 cells/60 μl under the left forepaw 12 days before the experiment). An animal weighing 20 g was injected intraperitoneally with a solution of 20 mg valine-d6 in 0.5 ml of water. In 10 minutes after the injection, the animal was immobilized with isoflurane and placed on a heated bed in a tomograph. The surface ^2H receiving coil was positioned over the anterior part of the animal's body from the dorsal side, as indicated in FIG. 2 by the dotted line.
In this example, experiments were performed on Balb/c mice grafted with 4T1 breast carcinoma (injection of 5·10^5 cells/60 μl under the left forepaw 12 days before the experiment).
An animal weighing 20 g was injected intraperitoneally with a solution:
a) 30 mg of L-alanine-3,3,3-d3 in 0.5 ml of water; or
In 10 minutes after the injection, the animal was immobilized with isoflurane and placed on a heated bed in a tomograph. The surface ^2H receiving coil was positioned over the anterior part of the animal's body from the dorsal side, as indicated in FIG. 4 by the dotted line.

[5] = Excerpt: This exchange lowers the concentration of the deuterium label, while simultaneously increasing the background signal of heavy water (DOH), which is evenly distributed throughout the body due to rapid diffusion. This process leads to a decrease in the contrast of the image, and also prevents quantitive evaluation of deuterated component concentration by comparison with the intensity of natural DOH signal.
[6] = Solubility in water for injection; assay type: physicochemical; details: 10 mg in 1.0 ml of water was the dose given
[7] = in vivo; cited from earlier work; remark: listed apart in the source
[8] = Content of valine-d6 in tissues of mice with 4T1 breast carcinoma, 2H NMR of tissue extracts (Example 5); assay type: in vivo, Balb/c mice; details: for [valine-d6], 30 min.: 30 min after 20 mg i.p. to 20 g mouse; for [valine-d6], 1 hour: 1 hour after 20 mg i.p. to 20 g mouse
Description: After administration, the animal was kept in a separate cage with access to food and water. After a certain time after administration, the animal was devitalized by dislocation of the cervical vertebrae. Samples of animal organs and tissues were quickly removed and frozen in liquid nitrogen. Frozen samples were ground in a porcelain mortar while cooling with liquid nitrogen. A weighed portion (50-200 mg) of the obtained powder was quickly introduced into 0.4% hydrochloric acid (0.6-1.0 ml) heated to 98° C. The resulting suspension was kept at 98° C. for 15 min with occasional shaking. After adding an internal standard (3-O—(CD3)-glucose solution), the mixture was shaken and centrifuged until the solid fractions were completely separated. The solution was analyzed by ^2H NMR.

[9] = Distribution and metabolism of deuterated valine mixture in tissues, isotopomer ratio by LC-MS/MS (Example 6); assay type: in vivo, Balb/c mice; details: 60 minutes after 20 mg i.p., 49% in initial drug
Description: In this example, L-valine-d6/d7, partially deuterated at the α position and positions 4, 4′, was used. (S-valine-d6/d7). The total molar fraction of α-deuterated forms of valine in the initial diagnostic drug is 49%.
After administration, the animal was kept in a separate cage with access to food and water. After 60 minutes after administration, the animal was devitalized by dislocation of the cervical vertebrae. Samples of animal organs and tissues were quickly removed and frozen in liquid nitrogen. Frozen samples were ground in a porcelain mortar while cooling with liquid nitrogen. A weighed portion (about 50 mg) of the obtained powder was quickly introduced into 0.4% hydrochloric acid (1.0 ml) heated to 98° C. The resulting suspension was kept at 98° C. for 15 min with occasional shaking, then centrifuged. The solution was diluted with 3 volumes of acetonitrile, centrifuged after 15 minutes, diluted with 9 volumes of water, and centrifuged again. The ratio of isotopomers d5, d6, and d7 of valine was determined by LC-MS/MS.

## CC(C)C(N)[14C](=O)O (racemic) [DL-1-^14C-valine]
[1]
  elimination of isotopic label in the form of CO2: 28%
  organ of main accumulation: accumulate mainly in the pancreas
[2]
  increase of absolute concentration of valine in liver and kidneys over physiological: no more than 0.3 nmol/g

## CC(C)[C@H](N)[11C](=O)O [1-^11C-valine]
[1]
  organ of main accumulation: accumulate mainly in the pancreas

## [2H]O[2H] [D2O]
[3]
  selective accumulation in various organs and tissues: do not show selective accumulation

## [2H]O [DOH]
[4]
  non-toxic replacement of water in the body: 10-30%

## [2H]C([2H])([2H])[C@H](N)C(=O)O [L-alanine-3,3,3-d3]
4T1 breast carcinoma
  accumulation in tumor tissue (2H tomograms): do not accumulate in tumor tissue
  accumulation selectivity in various organs (2H tomograms): do not show accumulation selectivity in various organs
[5]
  loss of deuterium in vivo: lose deuterium in vivo very quickly

## [2H]c1c([2H])c([2H])c(C([2H])([2H])[C@H](N)C(=O)O)c([2H])c1[2H] [L-phenylalanine-β,β,2,3,4,5,6-d7]
4T1 breast carcinoma
  accumulation in tumor tissue (2H tomograms): do not accumulate in tumor tissue
  accumulation selectivity in various organs (2H tomograms): do not show accumulation selectivity in various organs
[6]
  solubility: low solubility

## CC(C)C(N)[14C](=O)O (stereo not shown) [^14C-valine]
[7]
  time within which most of the label accumulated in liver and pancreas is included in protein: ≤ 10 min

## [2H]C([2H])(N)C(=O)O [glycine-2,2-d2]
[5]
  loss of deuterium in vivo: lose deuterium in vivo very quickly

## [2H]C([2H])([2H])C([C@H](N)C(=O)O)C([2H])([2H])[2H] [valine-d6, Valine-4,4,4,4′, 4′, 4′-D6]
[8]; 1 hour after the injection
  accumulation in tumor tissue compared to kidneys, heart, brain, skeletal muscles and adipose tissue: increased accumulation
[8]; Brain
  [valine-d6], 30 min.: 1.6 µmol/g
  [valine-d6], 1 hour: 2.6 µmol/g
[8]; Fat tissue
  [valine-d6], 30 min.: 4.0 µmol/g
  [valine-d6], 1 hour: 1.7 µmol/g
[8]; Heart
  [valine-d6], 30 min.: 7.5 µmol/g
  [valine-d6], 1 hour: 8.0 µmol/g
[8]; Kidneys
  [valine-d6], 30 min.: 9.3 µmol/g
  [valine-d6], 1 hour: 7.5 µmol/g
[8]; Liver
  [valine-d6], 30 min.: 17.9 µmol/g
  [valine-d6], 1 hour: 11.5 µmol/g
[8]; Lungs
  [valine-d6], 30 min.: 10.6 µmol/g
  [valine-d6], 1 hour: 8.8 µmol/g
[8]; Sceletal muscles
  [valine-d6], 30 min.: 7.4 µmol/g
  [valine-d6], 1 hour: 7.7 µmol/g
[8]; Spleen
  [valine-d6], 30 min.: 14.7 µmol/g
  [valine-d6], 1 hour: 14.1 µmol/g
[8]; Tumor:Brain
  Tumor:tissue ratio, 30 min.: 5.8
  Tumor:tissue ratio, 1 hour: 3.8
[8]; Tumor:Fat tissue
  Tumor:tissue ratio, 30 min.: 2.3
  Tumor:tissue ratio, 1 hour: 5.8
[8]; Tumor:Heart
  Tumor:tissue ratio, 30 min.: 1.2
  Tumor:tissue ratio, 1 hour: 1.2
[8]; Tumor:Kidneys
  Tumor:tissue ratio, 30 min.: 0.99
  Tumor:tissue ratio, 1 hour: 1.3
[8]; Tumor:Liver
  Tumor:tissue ratio, 30 min.: 0.51
  Tumor:tissue ratio, 1 hour: 0.85
[8]; Tumor:Lungs
  Tumor:tissue ratio, 30 min.: 0.87
  Tumor:tissue ratio, 1 hour: 1.1
[8]; Tumor:Sceletal muscles
  Tumor:tissue ratio, 30 min.: 1.2
  Tumor:tissue ratio, 1 hour: 1.3
[8]; Tumor:Spleen
  Tumor:tissue ratio, 30 min.: 0.63
  Tumor:tissue ratio, 1 hour: 0.70
[8]; Tumor
  [valine-d6], 30 min.: 9.2 µmol/g
  [valine-d6], 1 hour: 9.8 µmol/g
[8]; physiological free valine about 0.5 μmol/g
  excess over the physiological concentration of free valine in animal tissues: more than 10 fold

## Valine-2,4,4,4,4 “, 4”, 4′-D7 (mixed with valine-4,4,4,4 “, 4”, 4′-D6) [L-valine-d6/d7]
[9]; adipose tissue
  total mole fraction of α-deuterated valine: 11%
[9]; blood
  total mole fraction of α-deuterated valine: 12%
[9]; brain
  total mole fraction of α-deuterated valine: 5%
[9]; kidneys
  total mole fraction of α-deuterated valine: 17%
[9]; liver
  total mole fraction of α-deuterated valine: 11%
[9]; skeletal muscles
  total mole fraction of α-deuterated valine: 11%
[9]; spleen
  total mole fraction of α-deuterated valine: 13%
[9]; tumor
  total mole fraction of α-deuterated valine: 12%
